Laboratory results reported in patent US5641772A, “Condensed diazepinones, processes for preparing them and agents containing these compounds for treating diseases of the central nervous system and for promoting cerebral blood circulation” (Dr. Karl Thomae GmbH, priority 1991, dated 1997).

Experiments:
[1] = system: arecoline-induced increase in blood pressure; experiment: Arecoline test: CNS-penetration, in vivo (rat), reduction in the arecoline-induced increase in blood pressure; details: i.v.
Procedure: Cerebroavailable antimuscarinics block this central effect. […] The trachea is incubated, the animals are respirated with an air/oxygen mixture (80 breaths per minute). The blood pressure is recorded after canulation of the carotid artery by means of a pressure recorder (Bell and Howell Type 4-327-I). The test substances are administered through the jugular vein ([…]). […] The arecoline is administered (in doses of 0.3 mg/kg) at 15 minute intervals. After 2 comparison values, the test substance is injected in increasing doses 5 minutes before the next administration of arecoline. The results obtained were compared with the average starting values and determined as the percentage inhibition.

[2] = target: T1, M2 (Heart) muscarinic receptors (Rattus norvegicus, UniProt P10980); experiment: Receptor binding test, [3H]NMS, heart (M2); parameters: species or system Male Wistar rats; details: for Selectivity ratio (M1 /M2): ratio of Ki M1 (cortex) to Ki M2 (heart); for Ki: in vitro, rat heart, 0.3 nM [3H]NMS, 40 minutes
T1 construct: The cerebral cortex, heart and salivary glands were removed, washed and homogenised; from tissue; host or cells: rat heart homogenate (Wistar, Chbb: THOM)
T1 sequence (P10980 1-466): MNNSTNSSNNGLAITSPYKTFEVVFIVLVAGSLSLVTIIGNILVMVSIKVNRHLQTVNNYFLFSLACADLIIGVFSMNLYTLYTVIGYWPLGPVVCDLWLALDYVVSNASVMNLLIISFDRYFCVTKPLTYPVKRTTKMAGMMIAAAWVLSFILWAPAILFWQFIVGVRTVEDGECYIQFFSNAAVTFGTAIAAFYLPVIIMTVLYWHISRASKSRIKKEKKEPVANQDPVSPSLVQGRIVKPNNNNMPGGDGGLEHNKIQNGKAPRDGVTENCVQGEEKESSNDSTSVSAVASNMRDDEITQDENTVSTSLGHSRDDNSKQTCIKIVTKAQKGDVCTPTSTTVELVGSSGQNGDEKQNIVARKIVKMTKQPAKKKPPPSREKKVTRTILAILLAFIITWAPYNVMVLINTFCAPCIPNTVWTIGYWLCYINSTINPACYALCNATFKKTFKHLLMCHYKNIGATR

[3] = target: T2, M1 -receptors of the cortex (Rattus norvegicus, UniProt P08482); experiment: Receptor binding test, [3H]pirenzepine, cerebral cortex (M1); parameters: species or system Male Wistar rats; details: in vitro, 1 nM [3H]pirenzepine, 90 minutes
T2 construct: The cerebral cortex, heart and salivary glands were removed, washed and homogenised; from tissue; host or cells: rat cerebral cortex homogenate (Wistar, Chbb: THOM)
T2 sequence (P08482 1-460): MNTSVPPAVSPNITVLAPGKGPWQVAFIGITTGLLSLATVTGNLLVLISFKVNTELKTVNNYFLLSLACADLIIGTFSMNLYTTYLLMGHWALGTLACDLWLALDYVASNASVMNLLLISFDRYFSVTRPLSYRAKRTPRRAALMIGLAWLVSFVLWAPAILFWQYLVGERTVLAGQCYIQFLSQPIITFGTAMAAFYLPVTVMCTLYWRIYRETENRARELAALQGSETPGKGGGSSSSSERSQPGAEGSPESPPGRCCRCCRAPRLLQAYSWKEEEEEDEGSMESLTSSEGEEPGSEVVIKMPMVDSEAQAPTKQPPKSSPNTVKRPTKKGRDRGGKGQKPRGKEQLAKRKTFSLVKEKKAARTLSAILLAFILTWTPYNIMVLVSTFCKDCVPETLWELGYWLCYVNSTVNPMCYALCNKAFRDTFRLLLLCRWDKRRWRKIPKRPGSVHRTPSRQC

[4] = system: learning ability and memory performance; details: Hunter et al., Sutherland et al., Wishaw; cited from earlier work
[5] = target: T3, M3 (Submandibular gland) muscarinic receptors (Rattus norvegicus, UniProt P08483); experiment: Receptor binding test, [3H]NMS, salivary (submandibular) gland (M3); parameters: species or system Male Wistar rats; details: in vitro, 0.3 nM [3H]NMS, 40 minutes
T3 construct: The cerebral cortex, heart and salivary glands were removed, washed and homogenised; from tissue; host or cells: rat salivary (submandibular) gland homogenate (Wistar, Chbb: THOM)
T3 sequence (P08483 whole entry): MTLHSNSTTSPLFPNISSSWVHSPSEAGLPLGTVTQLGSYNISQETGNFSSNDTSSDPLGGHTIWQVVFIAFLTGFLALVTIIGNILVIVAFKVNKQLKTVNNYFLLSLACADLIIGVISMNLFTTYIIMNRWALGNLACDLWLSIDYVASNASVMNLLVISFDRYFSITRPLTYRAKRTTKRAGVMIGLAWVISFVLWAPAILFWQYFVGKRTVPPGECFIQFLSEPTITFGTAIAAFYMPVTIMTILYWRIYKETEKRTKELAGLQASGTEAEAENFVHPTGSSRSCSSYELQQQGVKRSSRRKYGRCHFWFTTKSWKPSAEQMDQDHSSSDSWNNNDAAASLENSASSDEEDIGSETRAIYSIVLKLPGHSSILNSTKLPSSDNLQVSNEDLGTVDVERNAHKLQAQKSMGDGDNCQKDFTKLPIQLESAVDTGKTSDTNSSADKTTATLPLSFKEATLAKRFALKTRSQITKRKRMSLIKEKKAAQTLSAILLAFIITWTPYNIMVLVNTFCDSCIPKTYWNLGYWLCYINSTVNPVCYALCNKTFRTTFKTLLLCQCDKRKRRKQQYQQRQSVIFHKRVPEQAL

[6] = system: learning-impaired old rats; experiment: Effect on the memory in the Morris water maze, learning-impaired 24 months old rats; format: in vivo, rat; details: 0.2 mg/kg s.c.
Procedure: The tests were carried out using the water maze described by R. G. M. Morris in Learn Motive 12:239-249 (1981) using the test method described therein.
On the first day, rats which were 24 months old and therefore learning-impaired (n=7 per group) were given 0.2 mg/kg of compound D by subcutaneous route whilst another group of these animals were given physiological saline solution (s.c.).

Row | SMILES | Selectivity ratio (M1 /M2) [2] | other results
1 | CCCN(CCC)CC1CCCCN1CCNC(=O)N1c2ccccc2C(=O)Nc2cccnc21.CS(=O)(=O)O (centres unmarked) [Substance L, 5,11-dihydro-11-[[[2-[2-[(dipropylamino)methyl]-1-piperidinyl]ethyl]amino]carbonyl]-6H-pyrido[2,3-b]-[1,4]benzodiazepin-6-one methanesulphonate] |  | effect on arecoline-mediated central effects / increase in blood pressure (in words) [1]: had no effect on the increase in blood pressure caused by arecoline
2 | CN(CCC1CCCCCN1C)CC(=O)N1c2ccccc2C(=O)Nc2cccnc21 (centres unmarked) [Substance S, 5,11-dihydro-11-[[[2-(1-methyl-hexahydro-1H-2-azepinyl)-ethyl]methylamino]acetyl]-6H-pyrido[2,3-b][1,4]benzodiazepin-6-one] | 5.3 | 
3 | CCN(CC)CC1COCCN1CCCC(=O)N1c2ccccc2C(=O)Nc2cccnc21 (centres unmarked) [Substance Q, 11-[4-[3-[(diethylamino)methyl]-4-morpholinyl]-1-oxo-1-butyl]-5,11-dihydro-6H-pyrido[2,3-b][1,4]-benzodiazepin-6-one] | 2.5 | 
4 | CCN(CC)CC1CCCCN1CC(=O)N1c2ccccc2C(=O)Nc2cccnc21 (centres unmarked) [Substance H, 11-[[2-[(diethylamino)methyl]-1-piperidinyl]acetyl]-5,11-dihydro-6H-pyrido[2,3-b][1,4]benzodiazepin-6-one] |  | Ki [3]: 500 nM; Ki [2]: 79 nM
5 | Cc1scc2c1N(C(=O)CCC#CCN1CCCCCC1)c1ccccc1NC2=O [Substance P, 4,9-dihydro-3-methyl-4-[6-(hexahydro-1H-1-azepinyl)-1-oxo-4-hexyn-1-yl]-10H-thieno[3,4-b][1,5]benzodi-azepin-10-one] | 4.6 | 
6 | CN1CCN(CC(=O)N2c3ccccc3C(=O)Nc3cccnc32)CC1 [pirenzepine] |  | learning ability and memory performance (literature) [4]: deterioration in learning ability and memory performance
7 | O=C1Nc2cccnc2N(C(=O)N2CCCC(CCCN3CCCCC3)C2)c2ccccc21 (centres unmarked) [Substance M, 5,11-dihydro-11-[[3-[3-(1-piperidinyl)-1-propyl]-1-piperidinyl]carbonyl]-6H-pyrido[2,3-b][1,4]benzo-diazepin-6-one] | 6.5 | 
8 | CCN(CC)CC1CCCCN1CC(=O)N1c2cc(Cl)ccc2C(=O)Nc2cccnc21 (racemic) [Substance K, (±)-9-chloro-11-[[2-[(diethylamino)methyl]-1-piperidinyl]-acetyl]-5,11-dihydro-6H-pyrido[2,3-b]-[1,4]benzodiazepin-6-one] |  | Ki [3]: 126 nM; Ki [2]: 25 nM; Ki [5]: 759 nM
9 | O=C1Nc2cccnc2N(C(=O)CCC#CCN2CCCCC2)c2ccccc21 [Substance J, 5,11-dihydro-11-[1-oxo-6-(1-piperidinyl)-4-hexyn-1-yl]-6H-pyrido[2,3-b][1,4]benzodiazepin-6-one] | 6.6 | 
10 | CN(CCC1CCCN1C)CC(=O)N1c2ccccc2C(=O)Nc2cccnc21 (centres unmarked) [Substance R, 5,11-dihydro-11-[[[2-(1-methyl-2-pyrrolidinyl)-ethyl]-methylamino]acetyl]-6H-pyrido[2,3-b][1,4]-benzodiazepin-6-one] | 2.4 | 

The next lines start with results.

Row | Selectivity ratio (M1 /M2) [2] | SMILES | other results
11 | 13 | CCCC(C)(C)C(=O)N(CC)CCCCC1CCN(CC(=O)N2c3ccccc3C(=O)Nc3cccnc32)CC1 [Substance C, 5,11-dihydro-11-[[4-[4-[(2,2-dimethyl-1-oxopentyl)-ethylamino]butyl]-1-piperidinyl]acetyl]-6H-pyrido[2,3-b][1,4]benzodiazepin-6-one] | 
12 | 10 | CCN(CCCC1CCN(CC(=O)N2c3ccc(C)cc3C(=O)Nc3cccnc32)CC1)C(=O)C(C)(C)C [Substance E, 5,11-dihydro-8-methyl-11-[[4-[3-[(2,2-dimethyl-1-oxopropyl)-ethylamino]propyl]-1-piperidinyl]acetyl]-6H-pyrido[2,3-b][,1,4]benzodiazepin-6-one] | 
13 | 20 | CCN(CCCC1CCN(CC(=O)N2c3ccccc3C(=O)Nc3cccnc32)CC1)C(=O)C(C)(C)CC [Substance A, 5,11-dihydro-11-[[4-[3-[(2,2-dimethyl-1-oxobutyl]-ethylamino]-propyl]-1-piperidinyl]acetyl]-6H-pyrido[2,3-b][1,4]benzodiazepin-6-one] | 
14 | 10 | CCCC(C)(C)C(=O)N(CC)CCCC1CCN(CC(=O)N2c3ccccc3C(=O)Nc3cccnc32)CC1 [Substance B, 5,11-dihydro-[[4-[3-[(2,2-dimethyl-1-oxopentyl)-ethylamino]-propyl]-1-piperidinyl]acetyl]-6H-pyrido[2,3-b][1,4]benzodiazepin-6-one] | 
15 | 14 | CCN(CCCC1CCN(CC(=O)N2c3ccccc3C(=O)Nc3cccnc32)CC1)C(=O)C(C)(C)C [Substance F, 5,11-dihydro-11-[[4-[3-[(2,2-dimethyl-1-oxopropyl)-ethylamino]propyl]-1-piperidinyl]acetyl]-6H-pyrido[2,3-b][1,4]benzodiazepin-6-one] | 
16 | 35 | CCCC(C)(C)C(=O)N(CC)CCCC1CCN(CC(=O)N2c3ccc(Cl)cc3C(=O)Nc3cccnc32)CC1 [Substance D, 5,11-dihydro-8-chloro-11-[[4-[3-[(2,2-dimethyl-1-oxopentyl)-ethylamino]propyl]-1-piperidinyl]-acetyl]-6H-pyrido[2,3-b][1,4]benzodiazepin-6-one] | memory performance versus young control rats ([6]; fourth day, 24 months old rats, n=7): reached the same level as the control groups of young rats; memory performance compared with saline-treated learning-impaired old rats ([6]; observed 4 days, FIG. 1): improved memory performance; reduction of latency period in Morris water maze ([6]; second day, 24 months old rats, n=7): approximately 50%
17 | 24 | CCN(CCCC1CCN(CC(=O)N2c3ccc(C)cc3C(=O)Nc3cccnc32)CC1)C(=O)C(C)(C)CC [Substance G, 5,11-dihydro-8-methyl-11-[[4-[3-[(2,2-dimethyl-1-oxobutyl)ethylamino]propyl]-1-piperidinyl]acetyl]-6H-pyrido[2,3-b][1,4]benzodiazepin-6-one] | 
